Reference: publication PMC1660542, “Structure-based discovery of inhibitors of the YycG histidine kinase: New chemical leads to combat Staphylococcus epidermidis infections” (BMC Microbiology, 2006)
In brackets after ≈: the same amount, converted by molar mass. Where two headings read alike, the source gives them in different places.

How the values were obtained:
[1] = system: healthy human erythrocytes; test: Erythrocyte hemolysis assay; type: cell-based;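 on hemolysis: compounds tested at their MIC and at 4× MIC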
Method: (§1) Cytotoxicity of the antibacterial compounds on cultured Vero cell was measured by using the Cell Proliferation Kit I (MTT) (Roche, Indianapolis, USA) according to the manufacturer's protocol. Addition of DMSO (1%) in the medium produced a slight cytotoxicity on Vero cell, which could easily be corrected for. Each assay was performed in quadruplicate and repeated three times. The results were converted to percentage of the control (cells only treated with 1% DMSO) and CC50 (concentrations that produce a 50% cytotoxicity effect on Vero cell) was calculated by the Origin v7.0 software (OriginLab, Northampton, USA). Hemolytic activities of the compounds were determined by using healthy human erythrocytes. The erythrocytes were washed three times in sterile saline and resuspended to 5% prior to the assay. […] Cells without compound treatment and cells with 1% Triton-100 treatment were used as 0% and 100% hemolysis controls, respectively. The cell suspensions were incubated for 1 hour at 37°C and centrifuged at 1000×g for 10 min. Volumes of 100 μl supernatants were transferred to another sterile plate and hemoglobin release from the cells was determined at 570 nm. […] The hemolysis assays were repeated twice.

[2] = Erythrocyte hemolysis assay; type: cell-based, human; settings: human, erythrocytes (5% suspension), 1 hour, 37°C;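 on hemolysis: compounds tested at their MIC and at 4× MIC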
Method: as §1

S. epidermidis ATCC12228 [3] = test: MIC assay (broth dilution in tubes, CLSI); type: cell-based, Staphylococcus epidermidis; settings: Staphylococcus epidermidis
Description: (§2) Staphylococcus epidermidis ATCC12228 and RP62A strains were purchased from the American Type Culture Collection (ATCC, Manassas, USA). Staphylococcus aureus ATCC29213, Escherichia coli ATCC25922 and Pseudomonas aeruginosa ATCC27853 were kindly provided by Dr. Bijie Hu at Zhongshan Hospital (Shanghai, China). S. epidermidis strains se527, se886, se847, seG203, Streptococcus pyogenes strain 144, and Streptococcus mutans strain 128 were all clinical isolates from Zhongshan Hospital and Huashan Hospital (Shanghai, China). If not stated otherwise, S. epidermidis and S. aureus strains were grown at 37°C in tryptic soy broth (TSB, Oxoid) containing 0.25% glucose, E. coli and P. aeruginosa strains were grown at 37°C in Luria-Bertani (LB, Oxoid).
(§3) MIC assays for the antibacterial activities of the compounds were performed according to the broth micro-dilution (in tubes) method of the Clinical and Laboratory Standards Institute (CLSI) of America. The Minimal Bactericidal Concentration (MBC) was obtained by subculturing 100 μl from each negative (no visible bacterial growth) tube from the MIC assay, onto substance-free Mueller-Hinton agar plates. The plates were incubated at 37°C for 24 hours, and the MBC was defined as the lowest concentration of substance which produced subcultures growing no more than five colonies on each plate.

S. epidermidis RP62A [4] = test: MIC assay (broth dilution in tubes, CLSI); type: cell-based; settings: Staphylococcus epidermidis; S. epidermidis RP62A (biofilm-forming strain); read-out: Minimal inhibitory concentration (MIC)
Description: as §2, §3

S. mutans 128 = test: MIC assay (broth dilution in tubes, CLSI); type: cell-based, Streptococcus mutans; settings: for MIC: Streptococcus mutans, S. mutans 128, read-out: Minimal inhibitory concentration (MIC)
Description: as §2, §3

S. aureus ATCC29213 = test: MIC assay (broth dilution in tubes, CLSI); type: cell-based, Staphylococcus aureus; settings: for MIC: Staphylococcus aureus, S. aureus ATCC29213, read-out: Minimal inhibitory concentration (MIC)
Description: as §2, §3

S. pyogenes 144 = test: MIC assay (broth dilution in tubes, CLSI); type: cell-based, Streptococcus pyogenes; settings: for MIC: Streptococcus pyogenes, S. pyogenes 144, read-out: Minimal inhibitory concentration (MIC)
Description: as §2, §3

S. epidermidis ATCC12228 [5] = test: Minimal bactericidal concentration (MBC) assay; type: cell-based; settings: Staphylococcus epidermidis
Method: as §3

S. epidermidis RP62A [6] = test: Minimal bactericidal concentration (MBC) assay; type: cell-based; settings: Staphylococcus epidermidis; S. epidermidis RP62A; read-out: Minimal bactericidal concentration (MBC)
Method: as §3

YycG' protein = target: T1, YycG' protein (Staphylococcus epidermidis, UniProt Q8CU87); test: Inhibition of YycG' ATPase activity / autophosphorylation (Kinase-Glo Luminescent Kinase Assay); type: biochemical; settings: 3 μM ATP; for IC50: 4 μg YycG' protein, read-out: IC50 for YycG'; for inhibition at 50 µM: compound 50 μM, 4 μg protein, read-out: Inhibition of YycG' phosphorylation (decrease of ATPase activity)
T1 construct: of YycG (370aa to 610aa) was amplified by PCR; His-tag (pET28a) (N); made in house; host or cells: E. coli BL21 (pET28a, pETYycG')
Method: The inhibitory activities of the compounds for the ATPase activity of the YycG' protein was measured using the Kinase-Glo™ Luminescent Kinase Assay (Promega, Madison, USA). Briefly, 4 μg YycG' protein was pre-incubated with a series of dilution of compounds in the reaction buffer (40 mM Tris [pH 7.5], 20 mM MgCl2, and 0.1 mg/ml BSA), at 25°C for 30 min. Then 3 μM ATP was added for another incubation of 30 min at 25°C, and Kinase-Glo™ Reagent was added to detect the rest amount of ATP, as recorded from luminescence measurements (RLU). In parallel, theYycG' protein with no addition of compounds was used as the control. The rate of inhibiting protein phosphorylation (Rp) by the compounds was calculated from equation 1:
Rp=RLU(YycG^′+compound+ATP+Reagent)−RLU(YycG^′+ATP+Reagent)/RLU(ATP+Reagent)−RLU(YycG^′+ATP+Reagent)×100% (1) MathType@MTEF@5@5@+=feaafiart1ev1aaatCvAUfKttLearuWrP9MDH5MBPbIqV92AaeXatLxBI9gBaebbnrfifHhDYfgasaacH8akY=wiFfYdH8Gipec8Eeeu0xXdbba9frFj0=OqFfea0dXdd9vqai=hGuQ8kuc9pgc9s8qqaq=dirpe0xb9q8qiLsFr0=vr0=vr0dc8meaabaqaciaacaGaaeqabaqabeGadaaakeaacqqGsbGudaWgaaWcbaGaeeiCaahabeaakiabg2da9maalaaabaGaeeOuaiLaeeitaWKaeeyvauLaeiikaGIaeeywaKLaeeyEaKNaee4yamMafe4raCKbauaacqGHRaWkcqqGJbWycqqGVbWBcqqGTbqBcqqGWbaCcqqGVbWBcqqG1bqDcqqGUbGBcqqGKbazcqGHRaWkcqqGbbqqcqqGubavcqqGqbaucqGHRaWkcqqGsbGucqqGLbqzcqqGHbqycqqGNbWzcqqGLbqzcqqGUbGBcqqG0baDcqGGPaqkcqGHsislcqqGsbGucqqGmbatcqqGvbqvcqGGOaakcqqGzbqwcqqG5bqEcqqGJbWycuqGhbWrgaqbaiabgUcaRiabbgeabjabbsfaujabbcfaqjabgUcaRiabbkfasjabbwgaLjabbggaHjabbEgaNjabbwgaLjabb6gaUjabbsha0jabcMcaPaqaaiabbkfasjabbYeamjabbwfavjabcIcaOiabbgeabjabbsfaujabbcfaqjabgUcaRiabbkfasjabbwgaLjabbggaHjabbEgaNjabbwgaLjabb6gaUjabbsha0jabcMcaPiabgkHiTiabbkfasjabbYeamjabbwfavjabcIcaOiabbMfazjabbMha5jabbogaJjqbbEeahzaafaGaey4kaSIaeeyqaeKaeeivaqLaeeiuaaLaey4kaSIaeeOuaiLaeeyzauMaeeyyaeMaee4zaCMaeeyzauMaeeOBa4MaeeiDaqNaeiykaKcaaiabgEna0kabigdaXiabicdaWiabicdaWiabcwcaLiaaxMaacaWLjaWaaeWaaeaacqaIXaqmaiaawIcacaGLPaaaaaa@A46C@
IC50 (the concentration of inhibition of 50% YycG' protein autophosphorylation) was obtained by using the Origin v7.0 software (OriginLab, Northampton, USA).

SrrB' = test: Inhibition of SrrB' autophosphorylation (Kinase-Glo); type: biochemical, S. epidermidis; settings: compound 50 μM, 4 μg protein, 3 μM ATP
Vero cell = test: Cytotoxicity on Vero cell (MTT, Cell Proliferation Kit I); type: cell-based, African Green-monkey; settings: highest concentration tested 200 μM
Method: as §1

[7] = as above; type: cell-based, African Green-monkey; settings: African green monkey, Vero cells, highest concentration tested 200 μM
Method: as §1

[8] = at 4 × MIC (number in parenthesis)
[9] = at MIC for S. epidermidis ATCC12228
[10] = ATCC12228, Table 2, as tested on S. epidermidis ATCC 12228, read-out: MICs
[11] = S. epidermidis ATCC12228 (non-biofilm-forming strain), read-out: Minimal inhibitory concentration (MIC)

T1 sequence (Q8CU87 370-610): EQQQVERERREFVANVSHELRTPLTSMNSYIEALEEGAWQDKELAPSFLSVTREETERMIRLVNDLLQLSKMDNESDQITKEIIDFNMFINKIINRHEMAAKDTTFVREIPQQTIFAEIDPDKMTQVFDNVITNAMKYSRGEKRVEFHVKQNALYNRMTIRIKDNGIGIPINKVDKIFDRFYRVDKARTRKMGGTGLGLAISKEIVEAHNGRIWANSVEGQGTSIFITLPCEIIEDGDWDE

| SMILES | Hemolysis ([1]; at 4 × MIC (number in parenthesis), 1 hour, 37°C) [%] | Hemolytic activity ([1]; at the highest concentration (200 μM)) | hemolysis at 1 h [2, 8] [%] | hemolysis at 1 h [2, 9] [%] | MIC (S. epidermidis ATCC12228 [3]; [10]) [µM] | MIC (S. epidermidis ATCC12228 [3]; [11]) [µM] | MIC (S. epidermidis RP62A [4]) [µM] | Inhibitory effect against Streptococcus mutans (S. mutans 128) | MIC (S. mutans 128) [µM] | Inhibitory effect against S. aureus (S. aureus ATCC29213) | MIC (S. aureus ATCC29213) [µM] | Inhibitory effect against Streptococcus pyogenes (S. pyogenes 144) | MIC (S. pyogenes 144) [µM] | MBC (S. epidermidis ATCC12228 [5]) [µM] | MBC (S. epidermidis RP62A [6]) [µM] | IC50 (YycG' protein) [µM] | inhibition at 50 µM (YycG' protein) [%] | Inhibition of SrrB' phosphorylation (SrrB') [%] | CC50 (Vero cell) [µM] | CC50 [7] [µM] |
| --- | --- | --- | --- | --- | --- | --- | --- | --- | --- | --- | --- | --- | --- | --- | --- | --- | --- | --- | --- | --- |
| CCc1ccccc1N=C1SC(=Cc2ccc(OCC(O)O)c(OC)c2)C(=O)N1c1ccccc1CC [Compound 2] | 6.1 | ~ 16 % of the zero control | ~6 | 2.3 | 25 (≈ 13 µg/mL) | 25 (≈ 13 µg/mL) | 25 (≈ 13 µg/mL) | effective | 100 (≈ 51.9 µg/mL) | effective | 25 (≈ 13 µg/mL) | effective | 100 (≈ 51.9 µg/mL) | 100 (≈ 51.9 µg/mL) | 100 (≈ 51.9 µg/mL) | 29 | 61 | 3 |  |  |
| CC(=O)Nc1ccccc1C(=O)Nc1ccc2cc3ccc(NC(=O)c4ccccc4NC(C)=O)cc3nc2c1 [Compound 3] |  |  | 0.5 | < 0.1 | 12.5 (≈ 6.64 µg/mL) | 12.5 (≈ 6.64 µg/mL) | 25 (≈ 13.3 µg/mL) |  | > 200 | inhibited the growth | 100 (≈ 53.2 µg/mL) | inhibited the growth | 25 (≈ 13.3 µg/mL) | 50 (≈ 26.6 µg/mL) | 100 (≈ 53.2 µg/mL) | 15 | 70 | 5 | 152 | < 200 |
